Experimental data reported in patent US20100137226A1, “FATIGUE-REDUCING AGENT” (KYOWA HAKKO BIO CO., LTD, priority 2006, published 2010).
Read-outs that look alike come from different tables or passages of the source.

Tested on: SD male rats bred under water immersion
Conditions: swim with burden of ca. 8% of body weight, n=4, FIG. 1

| Compound | swimming time (time until the tip of nose was submerged in water for 10 seconds or more) (reduced glutathione 800 mg/kg body weight orally once a day for 5 days of water immersion breeding) | swimming time (time until the tip of nose was submerged in water for 10 seconds or more) (ornithine 1000 mg/kg body weight orally once a day for 5 days of water immersion breeding) |
| --- | --- | --- |
| N[C@@H](CCC(=O)N[C@@H](CS)C(=O)NCC(=O)O)C(=O)O [glutathione, reduced glutathione] | no change was recognized | – |
| Cl.NCCC[C@H](N)C(=O)O [ornithine, L-ornithine hydrochloride] | – | recovery of the swimming time was recognized |
